In ChEMBL document CHEMBL5653631, “A Potent and Selective ULK1 Inhibitor Suppresses Autophagy and Sensitizes Cancer Cells to Nutrient Stress” (iScience, 2018):

Columns and labels:
[1] = molecular target: T1, Serine/threonine-protein kinase tousled-like 1 (Homo sapiens) (UniProt Q9UKI8); experiment: Inhibition of human recombinant TLK1 at 40 nM in presence of ATP by radiometric assay relative to control
T1 sequence (whole entry): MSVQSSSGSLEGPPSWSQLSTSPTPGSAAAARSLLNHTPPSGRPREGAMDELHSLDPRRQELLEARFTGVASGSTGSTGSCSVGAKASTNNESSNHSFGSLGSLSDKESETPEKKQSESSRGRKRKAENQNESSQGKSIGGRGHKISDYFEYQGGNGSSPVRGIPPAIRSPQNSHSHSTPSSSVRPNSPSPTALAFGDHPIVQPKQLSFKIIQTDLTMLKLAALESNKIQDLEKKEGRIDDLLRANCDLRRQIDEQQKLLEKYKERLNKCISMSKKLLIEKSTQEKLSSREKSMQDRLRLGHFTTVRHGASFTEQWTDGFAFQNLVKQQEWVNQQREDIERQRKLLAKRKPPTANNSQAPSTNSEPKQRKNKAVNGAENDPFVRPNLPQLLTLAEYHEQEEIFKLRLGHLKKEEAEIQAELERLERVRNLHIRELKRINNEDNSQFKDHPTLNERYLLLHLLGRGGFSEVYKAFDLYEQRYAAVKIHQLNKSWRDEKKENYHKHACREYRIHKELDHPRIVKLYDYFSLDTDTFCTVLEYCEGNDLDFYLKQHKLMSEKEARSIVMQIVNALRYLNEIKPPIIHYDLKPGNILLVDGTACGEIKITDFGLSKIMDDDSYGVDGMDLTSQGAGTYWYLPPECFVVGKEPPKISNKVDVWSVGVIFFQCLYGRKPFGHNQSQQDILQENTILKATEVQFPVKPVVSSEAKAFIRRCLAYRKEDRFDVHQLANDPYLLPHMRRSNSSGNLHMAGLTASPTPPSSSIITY

[2] = molecular target: T2, Serine/threonine-protein kinase Nek9 (Homo sapiens) (UniProt Q8TD19); experiment: Inhibition of human recombinant NEK9 at 500 nM in presence of ATP by radiometric assay relative to control
T2 sequence (whole entry): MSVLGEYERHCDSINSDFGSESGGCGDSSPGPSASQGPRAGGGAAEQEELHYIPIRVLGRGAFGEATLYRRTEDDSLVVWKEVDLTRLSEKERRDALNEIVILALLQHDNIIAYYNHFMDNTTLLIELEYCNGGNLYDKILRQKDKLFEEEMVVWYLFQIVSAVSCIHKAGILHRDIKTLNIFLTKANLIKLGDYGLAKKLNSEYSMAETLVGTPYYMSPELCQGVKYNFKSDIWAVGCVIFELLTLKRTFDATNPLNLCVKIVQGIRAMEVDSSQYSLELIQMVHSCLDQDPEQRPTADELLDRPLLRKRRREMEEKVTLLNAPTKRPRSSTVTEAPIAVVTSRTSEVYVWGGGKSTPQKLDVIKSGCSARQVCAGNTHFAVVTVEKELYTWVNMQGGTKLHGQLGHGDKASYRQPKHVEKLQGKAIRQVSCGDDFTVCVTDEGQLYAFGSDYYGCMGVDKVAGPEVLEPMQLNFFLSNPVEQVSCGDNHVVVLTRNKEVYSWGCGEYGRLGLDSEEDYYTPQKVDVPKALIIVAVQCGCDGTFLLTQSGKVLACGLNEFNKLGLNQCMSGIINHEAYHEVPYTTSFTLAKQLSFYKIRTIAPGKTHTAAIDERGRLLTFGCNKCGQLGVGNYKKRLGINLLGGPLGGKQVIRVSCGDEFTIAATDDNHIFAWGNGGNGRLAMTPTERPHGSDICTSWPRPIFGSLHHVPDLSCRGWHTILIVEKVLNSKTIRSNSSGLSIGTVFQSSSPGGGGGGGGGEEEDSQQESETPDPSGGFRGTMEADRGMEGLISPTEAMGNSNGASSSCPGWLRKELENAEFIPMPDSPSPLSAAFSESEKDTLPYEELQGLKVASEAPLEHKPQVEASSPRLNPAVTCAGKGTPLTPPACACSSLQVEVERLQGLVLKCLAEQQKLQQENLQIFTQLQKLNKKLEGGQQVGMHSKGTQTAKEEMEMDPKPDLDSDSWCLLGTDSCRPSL

[3] = molecular target: Protein kinase C eta type (Homo sapiens) (UniProt P24723); experiment: Inhibition of human recombinant PKCH at 500 nM related to control ULK1
Chain of Protein kinase C eta type (Homo sapiens) (P24723 whole entry): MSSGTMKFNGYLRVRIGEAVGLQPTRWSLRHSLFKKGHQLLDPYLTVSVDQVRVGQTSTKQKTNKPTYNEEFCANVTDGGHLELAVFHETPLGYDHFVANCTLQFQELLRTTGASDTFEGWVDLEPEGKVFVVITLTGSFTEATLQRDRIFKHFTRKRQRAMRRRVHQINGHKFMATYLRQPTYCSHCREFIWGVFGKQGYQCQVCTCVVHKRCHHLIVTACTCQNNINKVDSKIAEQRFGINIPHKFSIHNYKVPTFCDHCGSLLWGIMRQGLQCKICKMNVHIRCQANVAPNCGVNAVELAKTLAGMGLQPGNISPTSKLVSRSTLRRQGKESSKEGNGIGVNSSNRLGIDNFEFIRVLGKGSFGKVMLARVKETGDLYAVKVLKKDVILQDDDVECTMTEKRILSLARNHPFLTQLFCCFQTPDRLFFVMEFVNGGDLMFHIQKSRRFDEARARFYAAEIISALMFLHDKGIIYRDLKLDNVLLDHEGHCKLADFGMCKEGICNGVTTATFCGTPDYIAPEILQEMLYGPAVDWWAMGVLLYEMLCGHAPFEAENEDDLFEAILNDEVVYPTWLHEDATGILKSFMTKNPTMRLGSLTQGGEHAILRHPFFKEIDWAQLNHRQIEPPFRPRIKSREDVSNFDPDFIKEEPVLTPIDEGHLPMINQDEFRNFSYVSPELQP

[4] = molecular target: Serine/threonine-protein kinase PLK2 (Homo sapiens) (UniProt Q9NYY3); experiment: Inhibition of human recombinant PLK2 at 500 nM related to control ULK1
Chain of Serine/threonine-protein kinase PLK2 (Homo sapiens) (Q9NYY3 whole entry, looked up): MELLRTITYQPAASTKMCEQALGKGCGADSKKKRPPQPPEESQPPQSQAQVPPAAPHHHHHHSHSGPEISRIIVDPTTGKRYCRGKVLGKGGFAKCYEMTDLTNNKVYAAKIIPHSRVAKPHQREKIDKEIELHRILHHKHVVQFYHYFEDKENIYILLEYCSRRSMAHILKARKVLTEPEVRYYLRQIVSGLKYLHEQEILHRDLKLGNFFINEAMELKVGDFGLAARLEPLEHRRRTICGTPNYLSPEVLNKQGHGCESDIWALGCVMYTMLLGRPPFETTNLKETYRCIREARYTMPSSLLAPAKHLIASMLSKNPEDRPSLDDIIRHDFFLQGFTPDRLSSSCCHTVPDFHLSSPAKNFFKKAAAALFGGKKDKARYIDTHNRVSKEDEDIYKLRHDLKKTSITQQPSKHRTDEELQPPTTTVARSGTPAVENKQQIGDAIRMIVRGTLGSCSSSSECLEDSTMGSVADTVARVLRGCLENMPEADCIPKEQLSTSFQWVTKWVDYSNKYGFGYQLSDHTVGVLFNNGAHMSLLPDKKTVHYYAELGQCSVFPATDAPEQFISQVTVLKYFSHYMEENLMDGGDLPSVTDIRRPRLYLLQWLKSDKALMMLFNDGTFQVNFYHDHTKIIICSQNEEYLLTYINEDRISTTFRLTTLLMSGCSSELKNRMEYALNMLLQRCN

[5] = molecular target: Serine/threonine-protein kinase PLK3 (Homo sapiens) (UniProt Q9H4B4); experiment: Inhibition of human recombinant PLK3 at 500 nM related to control ULK1
Chain of Serine/threonine-protein kinase PLK3 (Homo sapiens) (Q9H4B4 whole entry, looked up, canonical isoform): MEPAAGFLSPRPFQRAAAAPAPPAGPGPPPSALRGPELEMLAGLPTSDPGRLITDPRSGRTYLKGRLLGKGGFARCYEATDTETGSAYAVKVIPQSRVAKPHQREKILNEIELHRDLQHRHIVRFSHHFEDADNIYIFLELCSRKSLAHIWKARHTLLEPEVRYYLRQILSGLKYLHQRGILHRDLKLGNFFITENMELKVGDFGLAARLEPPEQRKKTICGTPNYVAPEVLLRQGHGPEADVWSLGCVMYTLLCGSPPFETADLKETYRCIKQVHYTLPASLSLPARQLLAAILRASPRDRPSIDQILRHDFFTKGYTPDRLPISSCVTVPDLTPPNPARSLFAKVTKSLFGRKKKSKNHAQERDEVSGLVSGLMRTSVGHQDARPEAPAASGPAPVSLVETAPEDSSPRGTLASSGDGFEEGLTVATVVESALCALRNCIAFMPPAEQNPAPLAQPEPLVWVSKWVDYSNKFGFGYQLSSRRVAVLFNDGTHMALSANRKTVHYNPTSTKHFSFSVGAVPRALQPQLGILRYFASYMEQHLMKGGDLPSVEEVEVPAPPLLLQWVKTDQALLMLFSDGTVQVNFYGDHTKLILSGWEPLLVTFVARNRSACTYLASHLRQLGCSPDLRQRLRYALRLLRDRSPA

[6] = molecular target: Casein kinase I isoform gamma-2 (Homo sapiens) (UniProt P78368); experiment: Inhibition of human recombinant CK1g2 at 15 nM in presence of ATP by radiometric assay relative to control
Chain of Casein kinase I isoform gamma-2 (Homo sapiens) (P78368 whole entry, looked up, canonical isoform): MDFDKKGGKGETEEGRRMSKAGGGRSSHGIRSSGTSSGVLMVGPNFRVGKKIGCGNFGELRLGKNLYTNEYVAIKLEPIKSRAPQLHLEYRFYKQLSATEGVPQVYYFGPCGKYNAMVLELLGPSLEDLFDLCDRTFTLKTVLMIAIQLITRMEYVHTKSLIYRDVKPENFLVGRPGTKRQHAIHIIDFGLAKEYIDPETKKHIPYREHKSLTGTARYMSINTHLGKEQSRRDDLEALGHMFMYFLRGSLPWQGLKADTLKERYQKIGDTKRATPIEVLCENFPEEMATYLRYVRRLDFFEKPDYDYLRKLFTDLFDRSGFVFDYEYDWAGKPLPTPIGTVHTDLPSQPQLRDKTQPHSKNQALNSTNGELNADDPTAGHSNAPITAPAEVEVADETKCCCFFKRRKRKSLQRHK

[7] = molecular target: Fibroblast growth factor receptor 3 (Homo sapiens) (UniProt P22607); experiment: Inhibition of human recombinant FGFR3 at 15 nM related to control ULK1
Chain of Fibroblast growth factor receptor 3 (Homo sapiens) (P22607 23-806 limits assumed): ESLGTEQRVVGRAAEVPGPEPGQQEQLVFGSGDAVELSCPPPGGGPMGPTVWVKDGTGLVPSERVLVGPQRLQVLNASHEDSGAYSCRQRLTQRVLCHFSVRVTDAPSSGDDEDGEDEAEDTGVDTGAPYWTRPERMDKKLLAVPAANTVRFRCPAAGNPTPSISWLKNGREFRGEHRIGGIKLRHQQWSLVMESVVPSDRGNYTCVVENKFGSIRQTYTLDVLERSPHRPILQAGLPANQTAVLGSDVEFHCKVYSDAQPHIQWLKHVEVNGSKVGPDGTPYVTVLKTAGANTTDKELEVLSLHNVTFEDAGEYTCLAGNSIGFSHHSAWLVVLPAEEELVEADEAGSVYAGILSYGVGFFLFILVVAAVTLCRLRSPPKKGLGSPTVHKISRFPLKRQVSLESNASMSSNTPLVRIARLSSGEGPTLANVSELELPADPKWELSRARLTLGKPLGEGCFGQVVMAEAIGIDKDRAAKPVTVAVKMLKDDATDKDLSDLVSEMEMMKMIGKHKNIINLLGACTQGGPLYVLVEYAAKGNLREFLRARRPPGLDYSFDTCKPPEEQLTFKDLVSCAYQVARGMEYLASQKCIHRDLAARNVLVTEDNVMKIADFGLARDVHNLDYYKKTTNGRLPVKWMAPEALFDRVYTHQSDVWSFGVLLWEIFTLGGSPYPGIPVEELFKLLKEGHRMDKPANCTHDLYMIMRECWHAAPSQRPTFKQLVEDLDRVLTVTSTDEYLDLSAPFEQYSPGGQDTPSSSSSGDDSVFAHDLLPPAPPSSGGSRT

[8] = molecular target: T3, Serine/threonine-protein kinase TAO3 (Homo sapiens) (UniProt Q9H2K8); experiment: Inhibition of human recombinant TAO3 at 15 nM related to control ULK1
T3 sequence (whole entry): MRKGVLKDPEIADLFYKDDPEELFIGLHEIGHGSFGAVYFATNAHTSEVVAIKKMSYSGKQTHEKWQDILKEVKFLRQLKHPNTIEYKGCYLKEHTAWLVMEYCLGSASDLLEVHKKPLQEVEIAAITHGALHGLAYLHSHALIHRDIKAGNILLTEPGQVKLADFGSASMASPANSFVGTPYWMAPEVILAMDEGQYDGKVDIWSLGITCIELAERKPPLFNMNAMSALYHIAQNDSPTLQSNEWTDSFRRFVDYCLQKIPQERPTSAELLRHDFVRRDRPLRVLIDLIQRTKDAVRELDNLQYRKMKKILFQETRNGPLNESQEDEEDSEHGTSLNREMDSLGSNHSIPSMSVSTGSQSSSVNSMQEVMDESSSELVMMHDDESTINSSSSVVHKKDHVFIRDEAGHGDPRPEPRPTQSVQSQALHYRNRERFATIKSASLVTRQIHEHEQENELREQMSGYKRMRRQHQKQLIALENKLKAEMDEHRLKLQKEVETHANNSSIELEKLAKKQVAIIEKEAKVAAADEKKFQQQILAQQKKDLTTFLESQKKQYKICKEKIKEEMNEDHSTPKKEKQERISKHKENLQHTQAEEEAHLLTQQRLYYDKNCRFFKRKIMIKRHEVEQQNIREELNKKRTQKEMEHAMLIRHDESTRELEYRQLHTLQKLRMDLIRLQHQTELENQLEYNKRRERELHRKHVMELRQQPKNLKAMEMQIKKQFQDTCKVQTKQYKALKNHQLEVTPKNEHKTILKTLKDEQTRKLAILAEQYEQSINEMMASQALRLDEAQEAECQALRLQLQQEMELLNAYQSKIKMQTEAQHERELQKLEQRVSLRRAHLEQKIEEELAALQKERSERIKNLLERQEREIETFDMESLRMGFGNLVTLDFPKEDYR

## O=C(N[C@@H](C1CC1)C(F)(F)F)c1cc(-c2cnn3cc(-c4ccc(F)cc4)cnc23)cs1
[1]
  inhibition: 0%

## CNC(=O)c1ccccc1Oc1nc(Nc2cc(OC)c(OC)c(OC)c2)ncc1Br
[2]
  inhibition: 0%
[3]
  fold change (FC): 0.09
[4]
  fold change (FC): 0.05
[5]
  fold change (FC): 0

## CC(C)[C@H](NC(=O)c1cc(-c2cnn3cc(-c4ccc(OCCN5CCCCC5)cc4)cnc23)cs1)C(F)(F)F
[6]
  inhibition: 0%
[7]
  fold change (FC): 0
[8]
  fold change (FC): 0.01
